Values of other authors in patent US6517822B1, “Formulations and methods for straightening hair” (priority 1998, dated 2003).

Assays:
[1] = molarity of 0.1

Row | SMILES | tumor finding from oral exposure (animal studies) | solute ionized at equilibrium (0.01 mole in a liter of water at room temperature) | acetic acid ionized (0.1 mol, final volume 1 liter) | electrical conductivity [1]
1 | CC(N)=O [Acetamide] | liver tumors | – | – | –
2 | CC(=O)O [acetic acid] | – | about 4% | 1.3% | 4.67 reciprocal ohms (mho)
